Laboratory results reported in patent US9745295B2, “Thiazole-substituted aminoheteroaryls as spleen tyrosine kinase inhibitors” (Merck Sharp & Dohme Corp., priority 2013, dated 2017).

Each compound was assayed against T1, recombinant human GST-SYK (Homo sapiens, UniProt P43405) (assay: Homogeneous Time-Resolved Fluorescence (HTRF) assay for the recombinant human Syk enzyme). Conditions: recombinant human GST-SYK 5 pM, ATP 25 μM, read-out: rhSYK IC50.
T1 construct: purchased Carna Biosciences 08-176
Assay type: biochemical
Method: Homogeneous Time-Resolved Fluorescence (HTRF) Assay for the Recombinant Human Syk Enzyme
A recombinant GST-hSYK fusion protein was used to measure potency of compounds to inhibit human Syk activity. The recombinant human GST-SYK (Carna Biosciences #08-176) (5 pM final concentration) was incubated with various concentrations of the inhibitor diluted in DMSO (0.1% final concentration) for 10 minutes at room temperature in 15 mM Tris-HCl (pH 7.5), 0.01% tween 20, 2 mM DTT in 384 well plate format. To initiate the reaction the biotinylated substrate peptide (250 nM final concentration) that contains the phosphorylation site for Syk was added with magnesium (5 mM final concentration) and ATP (25 μM final concentration). Final volume of the reaction was 10 μL. Phosphorylation of the peptide was allowed to proceed for 45′ at room temperature. To quench the reaction and detect the phosphorylated product, 2 nM of a Europium-anti-phosphotyrosine antibody (Perkin Elmer #AD0161) and 70 nM SA-APC (Perkin-Elmer #CR130-100) were added together in 15 mM Tris pH 7.5, 40 mM EDTA, 0.01% tween 20. Final volume of the quenching solution was 10 μL.
The resulting HTRF signal was measured after 30 minutes on an EnVision (Perkin-Elmer) reader using a time-resolved fluorescence protocol. Table A below lists activities as IC50 values (nM) for representative compounds of the invention.

| IC50 | SMILES |
| --- | --- |
| 0.397 nM | Cc1cc(Nc2nccc(C(F)(F)F)n2)cc(-c2cnc(C3(O)CCCc4cc(C(=O)O)ccc43)s2)n1 (single isomer, unassigned) [Example 4.25, (R or S)-5-hydroxy-5-[5-(6-methyl-4-{[4-(trifluoromethyl)pyrimidin-2-yl]amino}pyridin-2-yl)-1,3-thiazol-2-yl]-5,6,7,8-tetrahydronaphthalene-2-carboxylic acid] |
| 7.15 nM | COc1cc(Nc2nccc(C)n2)cc(-c2cnc(C(C)(O)[C@H]3CC[C@H](C(=O)O)CC3)s2)n1 (single isomer, unassigned) [Example 4.22, (trans)-4-((R or S)-1-hydroxy-1-(5-{6-methoxy-4-[(4-methylpyrimidin-2-yl)amino]pyridin-2-yl}-1,3-thiazol-2-yl)ethyl]cyclohexane carboxylic acid] |
| 29.3 nM | Cc1cc(Nc2cc(C)ccn2)cc(-c2cnc(C(C)(O)C3CCC(C(=O)O)CC3)s2)c1 (single isomer, unassigned) [Example 4.15, (trans)-4-((R or S)-[1-hydroxy-1-(5-{3-methyl-5-[(4-methylpyridin-2-yl)amino]phenyl}-1,3-thiazol-2-yl)ethyl]cyclohexanecarboxylic acid] |
| 4.54 nM | CC1(C)CC(O)(c2ncc(-c3cccc(Nc4cc(C(F)(F)F)ncn4)n3)s2)CCC1C(=O)O (single isomer, unassigned) [Example 3.7, (1S,4R or 1R,4S)-4-hydroxy-2,2-dimethyl-4-[5-(6-{[6-(trifluoromethyl)pyrimidin-4-yl]amino}pyridin-2-yl)-1,3-thiazol-2-yl]cyclohexanecarboxylic acid] |
| 0.608 nM | Cc1cc(Nc2cnccn2)nc(-c2cnc([C@@]3(O)CC[C@H](C(=O)O)C(C)(C)C3)s2)c1 (single isomer, unassigned) [Example 3.8, (1S,4R or 1R,4S)-4-hydroxy-2,2-dimethyl-4-{5-[4-methyl-6-(pyrazin-2-ylamino)pyridin-2-yl]-1,3-thiazol-2-yl}cyclohexanecarboxylic acid] |
| 6.91 nM | Cc1cc(Nc2nccc(C)n2)cc(-c2cnc(C3(O)CCC(C(=O)O)C(C)(C)C3)s2)n1 (single isomer, unassigned) [Example 4.16, (1S,4R or 1R,4S)-4-hydroxy-2,2-dimethyl-4-(5-{6-methyl-4-[(4-methylpyrimidin-2-yl)amino]pyridin-2-yl}-1,3-thiazol-2-yl)cyclohexane-carboxylic acid] |
| 1.31 nM | Cc1cc(Nc2nccc(C)n2)cc(-c2cnc(C(C)(O)[C@H]3CC[C@H](C(=O)O)CC3)s2)n1 (single isomer, unassigned) [Example 4.11, (trans)-4-((R or S)-1-hydroxy-1-(5-{6-methyl-4-[(4-methylpyrimidin-2-yl)amino]pyridin-2-yl}-1,3-thiazol-2-yl)ethyl]cyclohexane carboxylic acid] |
| 43.4 nM | Cc1cc(-c2cnc(C3(O)CCC3)s2)nc(Nc2cc(C(F)(F)F)ccn2)n1 [Example 4.4, 1-[5-(6-methyl-2-{[4-(trifluoromethyl)pyridin-2-yl]amino}pyrimidin-4-yl)-1,3-thiazol-2-yl]cyclobutanol] |
| 0.0959 nM | Cc1cc(Nc2nccc(C(F)(F)F)n2)cc(-c2cnc(C3(O)CCc4cc(C(=O)O)ccc43)s2)n1 [Example 4.26, (1R, or 1S)-1-hydroxy-1-[5-(6-methyl-4-{[4-(trifluoromethyl)pyrimidin-2-yl]amino}pyridin-2-yl)-1,3-thiazol-2-yl]-2,3-dihydro-1H-indene-5-carboxylic acid] |
| 43.6 nM | Cc1ccnc(Nc2ccc(-c3cnc(C4(O)CCC(C(=O)O)CC4)s3)cc2C)c1 (stereo not drawn) [Example 4.13, cis-4-hydroxy-4-(5-{3-methyl-4-[(4-methylpyridin-2-yl)amino]phenyl}-1,3-thiazol-2-yl)cyclohexanecarboxylic acid] |
| 0.266 nM | Cc1cc(Nc2nccc(C(F)(F)F)n2)cc(-c2cnc(C(C)(O)[C@H]3CC[C@H](C(=O)O)CC3)s2)n1 (single isomer, unassigned) [Example 4.8, (trans)-4-((R or S)-1-hydroxy-1-[5-(6-methyl-4-{[4-(trifluoromethyl)pyrimidin-2-yl]amino}pyridin-2-yl)-1,3-thiazol-2-yl]ethyl}cyclohexane carboxylic acid] |
| 1.37 nM | Cc1cc(Nc2nccc(C(F)F)n2)cc(-c2cnc(C(C)(O)C3CCC(C(=O)O)CC3)s2)n1 (single isomer, unassigned) [Example 4.17, (trans)-4-((R or S)-{1-[5-(4-{[4-(difluoromethyl)pyrimidin-2-yl]amino}-6-methylpyridin-2-yl)-1,3-thiazol-2-yl]-1-hydroxyethyl}cyclo-hexanecarboxylic acid] |

The remaining lines, values behind:

| SMILES | IC50 |
| --- | --- |
| Cc1cc(Nc2cc(C(F)(F)F)ncn2)nc(-c2cnc(C3(O)CCC(C(N)=O)C(C)C3)s2)c1 (single isomer, unassigned) [Example 1.17, rel-(1S,2R,4R or S)-4-hydroxy-2-methyl-4-[5-(4-methyl-6-{[6-(trifluoromethyl)pyrimidin-4-yl]amino}pyridin-2-yl)-1,3-thiazol-2-yl] cyclohexane-carboxamide] | 1.25 nM |
| COC(=O)C1CCC(O)(c2ncc(-c3nc(C)cc(Nc4cc(C(F)(F)F)ccn4)n3)s2)CC1(C)C (stereo not drawn) [Example 1.10, methyl 4-hydroxy-2,2-dimethyl-4-[5-(4-methyl-6-{[4-(trifluoromethyl)pyridin-2-yl]amino}pyrimidin-2-yl)-1,3-thiazol-2-yl]cyclohexane-carboxylate] | 8.85 nM |
| COC(=O)C1CCC(O)(c2ncc(-c3cc(Nc4nccc(C(F)(F)F)n4)cc(C)n3)s2)CC1(C)C (stereo not drawn) [Example 1.8, methyl 4-hydroxy-2,2-dimethyl-4-[5-(6-methyl-4-{[4-(trifluoromethyl)pyrimidin-2-yl]amino}pyridin-2-yl)-1,3-thiazol-2-yl] cyclohexane-carboxylate] | 8.37 nM |
| Cc1cc(Nc2cc(C(F)(F)F)ncn2)nc(-c2cnc([C@@]3(O)CC[C@H](C(=O)O)[C@H](C)C3)s2)c1 (single isomer, unassigned) [Example 1.3, rel-(1S,2R,4R or S)-4-hydroxy-2-methyl-4-[5-(4-methyl-6-{[6-(trifluoromethyl)pyrimidin-4-yl]amino}pyridin-2-yl)-1,3-thiazol-2-yl] cyclohexane-carboxylic acid] | 0.938 nM |
| Cc1cc(Nc2nccc(C(F)(F)F)n2)cc(-c2cnc(C3(O)CCC3)s2)n1 [Example 2.1, 1-(5-(6-Methyl-4-((4-(trifluoromethyl)pyrimidin-2-yl)amino)pyridin-2-yl)thiazol-2-yl)cyclobutanol] | 26.4 nM |
| Cc1cc(Nc2cccc(C(F)(F)F)n2)cc(-c2cnc(C3(O)CCC(C(=O)O)C(C)(C)C3)s2)c1 (single isomer, unassigned) [Example 2.5, (1S,4R or 1R,4S)-4-hydroxy-2,2-dimethyl-4-[5-(3-methyl-5-{[6-(trifluoromethyl)pyridin-2-yl]amino}phenyl)-1,3-thiazol-2-yl]cyclohexane-carboxylic acid] | 2820 nM |
| OC1(c2ncc(-c3cncc(Nc4nccc(C(F)(F)F)n4)c3)s2)CCC1 [Example 2.3] | 189 nM |
| Cc1cc(Nc2nccc(C(F)(F)F)n2)cc(-c2cnc(C(C)(O)c3ccc(C(=O)O)cc3)s2)n1 (single isomer, unassigned) [Example 1.20, (R or S)-4-(1-hydroxy-1-(5-(6-methyl-4-((4-(trifluoromethyl)pyrimidin-2-yl)amino)pyridin-2-yl)thiazol-2-yl)ethl)benzoic acid] | 0.289 nM |
| Cc1cc(Nc2cnccn2)nc(-c2cnc(C3(O)CCCc4cc(C(=O)O)ccc43)s2)c1 (single isomer, unassigned) [Example 2.6, (R or S)-5-hydroxy-5-{5-[4-methyl-6-(pyrazin-2-ylamino)pyridin-2-yl]-1,3-thiazol-2-yl}-5,6,7,8-tetrahydronaphthalene-2-carboxylic acid] | 0.0289 nM |
| Cc1cc(Nc2cc(C3CCCCC3)ncn2)nc(-c2cnc(C3(O)CCCc4cc(C(=O)O)ccc43)s2)c1 (single isomer, unassigned) [Example 2.10, (R or S)-5-(5-{6-[(6-cyclohexylpyrimidin-4-yl)amino]-4-methylpyridin-2-yl}-1,3-thiazol-2-yl)-5-hydroxy-5,6,7,8-tetrahydronaphthalene-2-carboxylic acid] | 1.12 nM |
| Cc1cc(Nc2cc(C)ncn2)nc(-c2cnc(C3(O)CCCc4cc(C(=O)O)ccc43)s2)c1 (single isomer, unassigned) [Example 2.9, (R or S)-5-hydroxy-5-(5-{4-methyl-6-[(6-methylpyrimidin-4-yl)amino]pyridin-2-yl}-1,3-thiazol-2-yl)-5,6,7,8-tetrahydronaphthalene-2-carboxlic acid] | 0.212 nM |
| Cc1cc(Nc2nccc(OC(C)C)n2)cc(-c2cnc(C3(O)CCC(C(=O)O)C(C)(C)C3)s2)n1 (stereo not drawn) [Example 1.16, 4-hydroxy-2,2-dimethyl-4-[5-(6-methyl-4-{[4-(1-methylethoxy)pyrimidin-2-yl]amino}pyridin-2-yl)-1,3-thiazol-2-yl] cyclohexane-carboxylic acid] | 0.697 nM |
